Test results reported in patent US20190330197A1, “SUBSTITUTED NAPHTHALENE DIIMIDES AND THEIR USE” (UCL Business PLC, priority 2015, published 2019).
pIC50: −log10 of the molar value.

Assays:
[1] = test system: Kras32 sequence from the promoter region of the kras gene; test: FRET quadruplex stabilisation assay, Kras32; format: binding; conditions: compound at 1 μM, 60 mM potassium cacodylate buffer pH 7.4
Excerpt: (§1) The ability of the naphthalene diimide compounds to stabilize quadruplex DNA sequences was investigated using a fluorescence resonance energy transfer (FRET) assay modified to be used as a high-throughput screen in a 96-well format. Several quadruplex sequences were studied (including the human telomeric G-quadruplex DNA sequence 5′-FAM-d(GGG[TTAGGG]3)-TAMRA-3′ and the duplex sequence 5′-FAM-d[…]-HEG-[…]-TAMRA-3′ (HEG linker: [(—CH2—CH2—O—)6.
(§2) The labelled oligonucleotides have attached to them the donor fluorophore FAM: 6-carboxyfluorescein and the acceptor fluorophore TAMRA: 6-carboxytetramethylrhodamine. The FRET probe sequences were diluted from stock to the correct concentration (400 nM) in a 60 mM potassium cacodylate buffer (pH 7.4) and then annealed by heating to 85° C. for 10 min, followed by cooling to room temperature in the heating block. The compound was stored as a 10 mM stock solution in DMSO; final solutions (at 2× concentration) were prepared using 10 mM HCl in the initial 1:10 dilution, after which 60 mM potassium cacodylate buffer (pH 7.4) was used in all subsequent steps. The maximum HCl concentration in the reaction volume (at a ligand concentration of 20 μM) is thus 200 μM, well within the range of the buffer used. Relevant controls were also performed to check for interference with the assay. 96-Well plates (MJ Research, Waltham, Mass.) were prepared by aliquoting 50 μl of the annealed DNA into each well, followed by 50 μl of the compound solutions. Measurements were made on a DNA Engine Opticon (MJ Research) with excitation at 450-495 nm and detection at 515-545 nm. Fluorescence readings were taken at intervals of 0.5° C. in the range 30-100° C., with a constant temperature being maintained for 30 s prior to each reading to ensure a stable value. Final analysis of the data was carried out using a script written in the program Origin 7.0 (OriginLab Corp., Northampton, Mass.). The advanced curve-fitting function in Origin 7.0 was used for calculation of ΔTm values. All determinations were performed in triplicate or better. Esds in ΔTm are ±0.1° C.

[2] = test system: ALT (Alternative Lengthening of Telomeres) cell line; test: SRB growth inhibition, ALT; format: cell-based, human; conditions: 96 hr, SRB assay; read-out: short-term 96 hr IC50 ALT
Method: (§3) Human cancer cell lines and the somatic human cell line WI-38 (lung fibroblast) were purchased from the American Type Culture Collection. Cell lines were maintained in appropriate medium supplemented with 10% foetal bovine serum (Invitrogen, UK), 2 mM L-glutamine (Invitrogen, Netherlands), and other components as specified by the suppliers. Cell lines were maintained at 37° C., 5% CO2 and routinely passaged. Drugs were dissolved in DMSO and filtered through 0.22 μm pore-size filter units before addition to cell line appropriate media. Cellular growth inhibition was measured using the sulforhodamine B (SRB) assay in 96 well plates. Fifty percent inhibitory concentrations (IC50) were determined by taking the mean absorbance at 540 nm for each drug concentration expressed as a percentage of the absorbance of untreated control wells.

[3] = test system: WI38 (lung fibroblast) cells; test: SRB growth inhibition, WI38; format: cell-based, human; conditions: 96 hr, SRB assay; read-out: short-term 96 hr IC50 WI38
Method: as §3

[4] = test system: Panc1 (pancreatic cancer) cells; test: SRB growth inhibition, Panc1; format: cell-based, human; conditions: 96 hr, SRB assay; read-out: short-term 96 hr IC50 Panc1
Method: as §3

[5] = test system: Kras21 sequence from the promoter region of the kras gene; test: FRET quadruplex stabilisation assay, Kras21; format: binding; conditions: compound at 1 μM, 60 mM potassium cacodylate buffer pH 7.4
Excerpt: as §1, §2

[6] = test system: Hsp90B sequence from the HSP90 promoter; test: FRET quadruplex stabilisation assay, Hsp90B; format: binding; conditions: compound at 1 μM, 60 mM potassium cacodylate buffer pH 7.4
Excerpt: as §1, §2

[7] = test system: Bcl-2 sequence from the promoter region of the bcl-2 gene; test: FRET quadruplex stabilisation assay, Bcl-2; format: binding; conditions: compound at 1 μM, 60 mM potassium cacodylate buffer pH 7.4
Excerpt: as §1, §2

[8] = test system: Mia-PaCa2 (pancreatic cancer) cells; test: SRB growth inhibition, MiaPaCa2; format: cell-based, human; conditions: 96 hr, SRB assay; read-out: short-term 96 hr IC50 MiaPaCa2
Method: as §3

[9] = test system: Hsp90A sequence from the HSP90 promoter; test: FRET quadruplex stabilisation assay, Hsp90A; format: binding; conditions: compound at 1 μM, 60 mM potassium cacodylate buffer pH 7.4
Excerpt: as §1, §2

[10] = test system: A549 (lung cancer) cells; test: SRB growth inhibition, A549; format: cell-based, human; conditions: 96 hr, SRB assay; read-out: short-term 96 hr IC50 A549
Method: as §3

[11] = test system: MCF7 (breast) cells; test: SRB growth inhibition, MCF7; format: cell-based, human; conditions: 96 hr, SRB assay; read-out: short-term 96 hr IC50 MCF7
Method: as §3

[12] = test system: Tloop (representing duplex DNA); test: FRET assay, Tloop duplex DNA; format: binding; conditions: compound at 1 μM, 60 mM potassium cacodylate buffer pH 7.4
Excerpt: as §1, §2

[13] = test system: human telomeric (F21T) G-quadruplex DNA; test: FRET quadruplex stabilisation assay, F21T; format: binding; conditions: compound at 1 μM, 60 mM potassium cacodylate buffer pH 7.4
Excerpt: as §1, §2

Structure (SMILES) | ΔTm Kras32 [1] | pIC50 [2] | pIC50 [3] | pIC50 [4] | ΔTm Kras21 [5] | ΔTm Hsp90B [6] | ΔTm Bcl-2 [7] | pIC50 [8] | ΔTm Hsp90A [9] | pIC50 [10] | pIC50 [11] | ΔTm Tloop [12] | ΔTm F21T [13]
O=C1c2ccc3c4c(c(NCCc5ccccn5)cc(c24)C(=O)N1CCCN1CCOCC1)C(=O)N(CCCN1CCOCC1)C3=O [Compound 4d, 2,7-bis(3-morpholinopropyl)-4-((2-(pyridin-2-yl)ethyl)amino)benzo[Imn][3,8]phenanthroline-1,3,6,8(2H,7H)-tetraone] | 1.5 °C | 5.89 | 5.65 | 6.47 | 3.0 °C | <2 °C | 2.8 °C | 6.66 | 2.5 °C | 6.89 | 5.97 | 0 °C | <2 °C
CN1CCN(CCNc2cc3c4c(ccc5c4c2C(=O)N(CCCN2CCOCC2)C5=O)C(=O)N(CCCN2CCOCC2)C3=O)CC1 [Compound 4b, 4-((2-(4-methylpiperazin-1-yl)ethyl)amino)-2,7-bis(3-morpholinopropyl)benzo[Imn][3,8]phenanthroline-1,3,6,8(2H,7H)-tetraone] | 6.1 °C | 7.07 | 5.83 | 7.34 | 11.0 °C | 15.0 °C | 15.1 °C | 7.32 | 18.1 °C | 7.07 | 6.50 | 0.4 °C | 12.3 °C
CN1CCN(CCCNc2cc3c4c(ccc5c4c2C(=O)N(CCCN2CCOCC2)C5=O)C(=O)N(CCCN2CCOCC2)C3=O)CC1 [Compound 4a, 4-((3-(4-methylpiperazin-1-yl)propyl)amino)-2,7-bis(3-morpholinopropyl)benzo[Imn][3,8]phenanthroline-1,3,6,8(2H,7H)-tetraone] | 6.1 °C | 6.65 | 5.74 | 7.35 | 9.8 °C | 16.5 °C | 15.8 °C | 7.23 | 19.8 °C | 7.17 | 6.45 | 0.8 °C | 14.3 °C
CCN(CC)CCNc1cc2c3c(ccc4c3c1C(=O)N(CCCN1CCOCC1)C4=O)C(=O)N(CCCN1CCOCC1)C2=O [Compound 4i, 4-((2-(diethylamino)ethyl)amino)-2,7-bis(3-morpholinopropyl)benzo[Imn][3,8]phenanthroline-1,3,6,8(2H,7H)-tetraone] | 0.2 °C | 5.57 | 5.26 | 6.04 | 0.7 °C | 4.5 °C | 2.4 °C | 5.96 | 2.7 °C | 6.08 | 5.48 | 0 °C | <2 °C
O=C1c2ccc3c4c(c(NCCN5CCOCC5)cc(c24)C(=O)N1CCCN1CCOCC1)C(=O)N(CCCN1CCOCC1)C3=O [Compound 4g, 4-((2-morpholinoethyl)amino)-2,7-bis(3-morpholinopropyl)benzo[Imn][3,8]phenanthroline-1,3,6,8(2H,7H)-tetraone] | 1.5 °C | 4.96 | 4.75 | 6.66 | 2.4 °C | 9.4 °C | 5.8 °C | 6.69 | 11.0 °C | 5.66 | < 4.60 | 1.5 °C | 6.0 °C
O=C1c2ccc3c4c(c(NCCCCN5CCCC5)cc(c24)C(=O)N1CCCN1CCOCC1)C(=O)N(CCCN1CCOCC1)C3=O [Compound 4e, 2,7-bis(3-morpholinopropyl)-4-((4-(pyrrolidin-1-yl)butyl)amino)benzo[Imn][3,8]phenanthroline-1,3,6,8(2H,7H)-tetraone] | 6.6 °C | 7.05 | 5.91 | 7.48 | 11.7 °C | 16.9 °C | 16.1 °C | 7.44 | 20.6 °C | 7.59 | 6.65 | 0.2 °C | 15.9 °C
O=C1c2ccc3c4c(c(NCC5CCCO5)cc(c24)C(=O)N1CCCN1CCOCC1)C(=O)N(CCCN1CCOCC1)C3=O (centres unmarked) [Compound 4h, 4-((tetrahydrofurylmethyl)amino)-2,7-bis(3-morpholinopropyl) benzo[Imn][3,8]phenanthroline-1,3,6,8(2H,7H)-tetraone] | 1.2 °C | 6.15 | 5.73 | 6.09 | 3.4 °C | 6.8 °C | 4.2 °C | 6.86 | 3.9 °C | 6.84 | 5.99 | 0 °C | 1.4 °C
O=C1c2ccc3c4c(c(NCCc5ccc(O)cc5)cc(c24)C(=O)N1CCCN1CCOCC1)C(=O)N(CCCN1CCOCC1)C3=O [Compound 4j, 4-((4-hydroxyphenethyl)amino)-2,7-bis(3-morpholinopropyl)benzo[Imn][3,8]phenanthroline-1,3,6,8(2H,7H)-tetraone] | 3.0 °C | 6.35 | 5.78 | 6.79 | 6.1 °C | 13.8 °C | 10.0 °C | 7.23 | 15.7 °C | 7.04 | 5.81 | 0.1 °C | 9 °C
